Measured values: US20170368069A1, “USE OF 4-(4-FLUORO-2-METHOXYPHENYL)-N--1,3,5-TRIAZIN-2-AMINE FOR TREATING LEUKEMIAS” (Bayer Pharma Aktiengesellschaft, priority 2015, published 2017)
Where “and” joins values, the source holds several entries; their conditions need not be identical. Equal values may be shown once. Entries after “also recorded” stand apart in the source; their conditions may differ.

Assays:
HL-60 [1] = assay: Proliferation assay, HL-60; format: cell-based; conditions: Homo sapiens; HL-60, acute leukemia; after 72 hours of incubation with the substance
MOLM-13 = assay: Proliferation assay, MOLM-13; format: cell-based; conditions: Homo sapiens; MOLM-13, acute myeloid leukemia, 11q23 positive; after 72 hours of incubation
MV4-11 [2] = assay: Proliferation assay, MV4-11; format: cell-based; conditions: Homo sapiens; MV4-11, acute myeloid leukemia, 11q23 positive; after 72 hours of incubation
NOMO-1 [3] = assay: Proliferation assay, NOMO-1; format: cell-based; conditions: Homo sapiens; NOMO-1, acute myeloid leukemia, 11q23 positive; after 72 hours of incubation
KG-1 = assay: Proliferation assay, KG-1; format: cell-based; conditions: Homo sapiens; KG-1, acute myeloid leukemia; after 72 hours of incubation
PL-21 = assay: Proliferation assay, PL-21; format: cell-based; conditions: PL-21, acute myeloid leukemia; after 72 hours of incubation
OCI-AML-2 = assay: Proliferation assay, OCI-AML-2; format: cell-based; conditions: Homo sapiens, OCI-AML2; OCI-AML-2, acute myeloid leukemia; after 72 hours of incubation
HL-60 [4] = assay: Subcutaneous HL-60 leukemia xenograft, efficacy and tolerability; format: in vivo, NOD/SCID mice; conditions: 25 mg/kg/day p.o.
Protocol: (§1) The aim of the present experiments was to assess the in vivo efficacy and tolerability of Compound A′ in monotherapy in four leukemia models subcutaneously implanted in NOD/SCID mice.
(§2) The experiments included four in vivo efficacy experiments with female NOD/SCID mice bearing subcutaneous leukemia xenografts. Compound A′ was assessed at one dose level in monotherapy. Anti-tumor activity and tolerability of all groups were assessed using the vehicle control group as a reference.
(§3) Mouse strain, sex: NOD/SCID, female Animals supplied by: Harlan Total number of mice Efficacy test (implanted/randomized): 100/74 Approximate age at implantation: 5-7 weeks Approximate age at randomization: 6-9 weeks
(§4) The tumor models used in this study were derived from commercially available cell lines.
Leukemia cells were subcutaneously injected as cell suspensions into one flank of immunodeficient NOD/SCID mice under isofluorane anaesthesia (5*10^6 cells per injection). In the case of THP-1 cells, matrigel was used to increase implantation efficacy. […]
(§5) At randomization, the volume of growing tumors was initially determined. […]
(§6) Mice were weighed twice a week. Relative body weights of individual mice in % were calculated by dividing the individual body weight on day X (BWX) by the individual body weight on day 0 (BW0) multiplied by 100 according to the formula: […]
(§7) Group median relative body weights were calculated as well, considering only the weights of mice that were alive on the day in question.
(§8) The tumor volumes were determined by two-dimensional measurement with a caliper on the day of randomization (day 0) and then twice weekly (i.e. on the same days on which mice were weighed). Tumor volumes were calculated according to the formulas: […]
(§9) Anti-tumor activity was evaluated as maximum tumor volume inhibition versus the vehicle control group. […]
Tumor inhibition for a particular day (T/C in %) was calculated from the ratio of the median RTV values of test versus control groups multiplied by 100. […]

MV4-11 [5] = assay: Subcutaneous MV4-11 leukemia xenograft, efficacy and tolerability; format: in vivo, NOD/SCID mice
Protocol: as §1, §2, §3, §4
(§10) Leukemia cells were subcutaneously injected as cell suspensions into one flank of immunodeficient NOD/SCID mice under isofluorane anaesthesia (5*10^6 cells per injection). In the case of THP-1 cells, matrigel was used to increase implantation efficacy. For this, 1×10^8 leukemia cells were mixed with matrigel and an appropriate volume of the solution containing 5*10^6 cells was injected as described above.
At randomization, the volume of growing tumors was initially determined. […] The result of the randomization was documented and maintained with the experimental data. Animals not randomized were euthanized. The day of randomization is designated as day 0 of an experiment. […]
as §6, §7, §8, §9
(§11) Tumor inhibition for a particular day (T/C in %) was calculated from the ratio of the median RTV values of test versus control groups multiplied by 100.
The minimum (or optimum) T/C % value recorded for a particular test group during an experiment represents the maximum anti-tumor activity for the respective treatment. T/C values were calculated if at least 50% of the randomized animals in a group were alive on the day in question. […]

NOMO-1 [6] = assay: Subcutaneous NOMO-1 leukemia xenograft, efficacy and tolerability; format: in vivo, NOD/SCID mice
Protocol: as §1, §2, §3, §4, §10
(§12) At randomization, the volume of growing tumors was initially determined. […] The result of the randomization was documented and maintained with the experimental data. Animals not randomized were euthanized. The day of randomization is designated as day 0 of an experiment.
(§13) Vehicle: 80% (m/V) PEG400 in water for injection Compound A′: preparation of a dosing solution (2.5 mg/ml) once weekly by diluting the Compound A′ powder at 0.25% (w/v) in vehicle; storage of the dosing solution at 4° C.; dosing volume 10 ml/kg
as §6, §7, §8
(§14) Anti-tumor activity was evaluated as maximum tumor volume inhibition versus the vehicle control group. Data evaluation was performed using Oncotest proprietary software.
as §11
(§15) The minimum (or optimum) T/C % value recorded for a particular test group during an experiment represents the maximum anti-tumor activity for the respective treatment. T/C values were calculated if at least 50% of the randomized animals in a group were alive on the day in question.
(§16) Group optimum T/C values (in %) were used for activity rating as follows:
(§17) All leukemia models were implanted by subcutaneous injection of the corresponding cell line into female NOD/SCID mice. Compound A′ was administered orally at one dose level (25 mg/kg/day) in monotherapy once daily and treatment started once subcutaneous tumors were established. A vehicle-treated control group was included in each experiment. […] Anti-tumor activity (tumor growth inhibition) and tolerability of all groups were assessed using the vehicle control group as a reference.

THP-1 = assay: Subcutaneous THP-1 leukemia xenograft, efficacy and tolerability; format: in vivo, NOD/SCID mice
Protocol: as §1, §2, §3, §4, §10, §12, §13, §6, §7, §8, §14, §11, §15, §16, §17

[7] = system: leukemia xenograft models MV4-11, NOMO-1, THP-1 and HL-60; assay: Leukemia xenograft models, statements pooled over several models; format: in vivo; conditions: leukemia xenografts bearing mice, 25 mg/kg/day p.o.
Protocol: as §1, §2
Mouse strain, sex: NOD/SCID, female Animals supplied by: Harlan Total number of mice Efficacy test (implanted/randomized): 100/74 Approximate age at implantation: 5-7 weeks Approximate age at randomization: 6-9 weeks […]
as §5, §6, §7, §8

For `COc1cc(F)ccc1-c1ncnc(Nc2cccc(CS(C)(=N)=O)c2)n1` (single isomer, unassigned; (+)) [Compound A′, (+)-4-(4-Fluoro-2-methoxyphenyl)-N-{3-[(S-methylsulfonimidoyl)methyl]phenyl}-1,3,5-triazin-2-amine], the IC50 (HL-60 [1]) was 1120 nM, the IC50 (MOLM-13) was 320 nM and the IC50 (MV4-11 [2]) was 386 nM. For the same molecule, the IC50 (NOMO-1 [3]) was 328 nM, the IC50 (KG-1) was 670 nM and the IC50 (PL-21) was 192 nM. For the same molecule, the IC50 (OCI-AML-2) was 323 nM, the “Min. T/C” value (HL-60 [4]; HL-60 xenograft (no 11q23 translocation), schedule days 0-6, 11-17, minimum on day 14, 25 mg/kg/day) was 63.9% and 63.9 (14) % and the “anti-tumor activity (in words)” value (HL-60 [4]; HL-60 xenograft) was “borderline anti-tumor activity”. For the same molecule, the “Activity Rating” value (HL-60 [4]; HL-60 xenograft, days 0-6, 11-17, rating from group optimum T/C) was “+/− (Borderline activity 50% ≦ T/C < 65%)”, the “Min. T/C” value (MV4-11 [5]; MV4-11 xenograft (11q23 translocation), 25 mg/kg/day p.o., days 0-25, minimum on day 14) was 11.9 (14) % and the “anti-tumor activity (in words)” value (MV4-11 [5]; MV4-11 xenograft, 25 mg/kg/day p.o.) was “High anti-tumor activity”. For the same molecule, the “Activity Rating” value (MV4-11 [5]; MV4-11 xenograft, 25 mg/kg/day p.o., days 0-25, rating from group optimum T/C) was “++ (High activity 10% ≦ T/C < 25%)”, the “Tumor growth versus vehicle control group” value (MV4-11 [5]; MV4-11 xenograft, Mann-Whitney-Wilcoxon U-test) was “significantly reduced; also recorded: significantly attenuated” and the “Min. T/C” value (NOMO-1 [6]; NOMO-1 xenograft (11q23 translocation), 25 mg/kg/day p.o., days 0-25, minimum on day 14) was 19.7 (14) %. The “anti-tumor activity (in words)” value (NOMO-1 [6]; NOMO-1 xenograft, 25 mg/kg/day p.o.) was “High anti-tumor activity”, the “Activity Rating” value (NOMO-1 [6]; NOMO-1 xenograft, 25 mg/kg/day p.o., days 0-25, rating from group optimum T/C) was “++ (High activity 10% ≦ T/C < 25%)” and the “group median BWL (body weight loss)” value (NOMO-1 [6]; NOMO-1 xenograft-bearing mice, 25 mg/kg/day p.o.) was “up to 0.4%”. For the same molecule, the “Tumor growth versus vehicle control group” value (NOMO-1 [6]; NOMO-1 xenograft, Mann-Whitney-Wilcoxon U-test) was “significantly reduced; also recorded: significantly attenuated”, the “Min. T/C” value (THP-1; THP-1 xenograft (11q23 translocation), 25 mg/kg/day p.o., days 0-25, minimum on day 14) was 21.0 (14) % and the “anti-tumor activity (in words)” value (THP-1; THP-1 xenograft, 25 mg/kg/day p.o.) was “High anti-tumor activity”. For the same molecule, the “Activity Rating” value (THP-1; THP-1 xenograft, 25 mg/kg/day p.o., days 0-25, rating from group optimum T/C) was “+ (Moderate activity 25% ≦ T/C < 50%)”, the “group median BWL (body weight loss)” value (THP-1; THP-1 xenograft-bearing mice, 25 mg/kg/day p.o.) was “up to 0.4%” and the “Tumor growth versus vehicle control group” value (THP-1; THP-1 xenograft, Mann-Whitney-Wilcoxon U-test) was “significantly reduced; also recorded: significantly attenuated”. The tolerability [7] was “acceptable tolerability profile”.
